PubChem BioAssay AID248 (DTP/NCI, 2004)
Values joined by “and” are separate entries in the source; they are usually repeats but may differ in a detail not shown here. Identical values can stand only once. Toxic doses and inconclusive results are not listed. No stated cut-off is given here; in the data, active means T/C of 150% or more; inactive means T/C below 125%.

Tested on: L1210 leukemia ip in BDF1 mice, survival T/C
Test: NCI In Vivo Anticancer Drug Screen. Data for tumor model L1210 Leukemia (intraperitoneal) in B6D2F1 (BDF1) mice
Conditions: endpoint: mean survival time, higher = longer survival
Summary of the method: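 In this screen, tumor-bearing mice given compound are compared to those given vehicle, and their survival values are reported as a treated-to-control quotient.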

[1] = dose: 75.0 mg/kg/injection, schedule: Q01DX009 (ip), vehicle: Klucel (hydroxypropylcellulose) (HPC)
[2] = dose: 150.0 mg/kg/injection, schedule: Q01DX009 (ip), vehicle: Klucel (hydroxypropylcellulose) (HPC)

Measured: T/C

Cc1nc(NCc2ccccc2)c2cc[nH]c2n1
inactive: dose: 1.56 mg/kg/injection, schedule: Q01DX009 (ip), vehicle: Klucel (hydroxypropylcellulose) (HPC) 104 % of control and 111 % of control | dose: 3.12 mg/kg/injection, schedule: Q01DX009 (ip), vehicle: Klucel (hydroxypropylcellulose) (HPC) 96 % of control and 105 % of control | dose: 3.12 mg/kg/injection, schedule: Q04DX003 (ip), vehicle: Klucel (hydroxypropylcellulose) (HPC) 106 % of control | dose: 5.0 mg/kg/injection, schedule: Q01DX001 (ip), vehicle: saline 104 % of control | dose: 6.25 mg/kg/injection, schedule: Q01DX009 (ip), vehicle: Klucel (hydroxypropylcellulose) (HPC) 103 % of control and 110 % of control | dose: 6.25 mg/kg/injection, schedule: Q04DX003 (ip), vehicle: Klucel (hydroxypropylcellulose) (HPC) 103 % of control | dose: 10.0 mg/kg/injection, schedule: Q01DX001 (ip), vehicle: saline 104 % of control | dose: 12.5 mg/kg/injection, schedule: Q01DX009 (ip), vehicle: Klucel (hydroxypropylcellulose) (HPC) 100 % of control and 105 % of control | dose: 12.5 mg/kg/injection, schedule: Q04DX003 (ip), vehicle: Klucel (hydroxypropylcellulose) (HPC) 111 % of control | dose: 20.0 mg/kg/injection, schedule: Q01DX001 (ip), vehicle: saline 116 % of control | dose: 25.0 mg/kg/injection, schedule: Q01DX009 (ip), vehicle: Klucel (hydroxypropylcellulose) (HPC) 93 % of control and 97 % of control | dose: 25.0 mg/kg/injection, schedule: Q04DX003 (ip), vehicle: Klucel (hydroxypropylcellulose) (HPC) 103 % of control | dose: 40.0 mg/kg/injection, schedule: Q01DX001 (ip), vehicle: saline 104 % of control | dose: 80.0 mg/kg/injection, schedule: Q01DX001 (ip), vehicle: saline 110 % of control

Nc1nc(N)c2c(n1)Nc1ccc(Cl)nc1S2
inactive: [1] 93 % of control | [2] 95 % of control

CN1CCCN(C(=S)S)CC1
inactive: dose: 30.0 mg/kg/injection, schedule: Q01DX001 (ip), vehicle: saline 96 % of control | dose: 100.0 mg/kg/injection, schedule: Q01DX001 (ip), vehicle: saline 95 % of control

O=C(OCCCOC(=O)c1cccc([N+](=O)[O-])c1)c1cccc([N+](=O)[O-])c1
inactive: dose: 100.0 mg/kg/injection, schedule: Q01DX001 (ip), vehicle: other 101 % of control | dose: 200.0 mg/kg/injection, schedule: Q01DX001 (ip), vehicle: other 98 % of control | dose: 400.0 mg/kg/injection, schedule: Q01DX001 (ip), vehicle: other 102 % of control

CCCCCC(C)NC(=O)NCCCl (stereo not given)
inactive: dose: 100.0 mg/kg/injection, schedule: Q04DX002 (ip), vehicle: Klucel (hydroxypropylcellulose) (HPC) 89 % of control | dose: 200.0 mg/kg/injection, schedule: Q04DX002 (ip), vehicle: Klucel (hydroxypropylcellulose) (HPC) 92 % of control | dose: 400.0 mg/kg/injection, schedule: Q04DX002 (ip), vehicle: Klucel (hydroxypropylcellulose) (HPC) 87 % of control

Cc1c(C(=O)O)no[n+]1[O-]
inactive: dose: 100.0 mg/kg/injection, schedule: Q04DX002 (ip), vehicle: saline 104 % of control | dose: 200.0 mg/kg/injection, schedule: Q04DX002 (ip), vehicle: saline 95 % of control | dose: 400.0 mg/kg/injection, schedule: Q04DX002 (ip), vehicle: saline 87 % of control

O=C(N/N=C\c1ccc(/C=N\NC(=O)c2ccc(O)cc2)cc1)c1ccc(O)cc1
inactive: dose: 50.0 mg/kg/injection, schedule: Q01DX009 (ip), vehicle: saline with Tween-80 112 % of control | dose: 100.0 mg/kg/injection, schedule: Q01DX009 (ip), vehicle: saline with Tween-80 94 % of control | dose: 200.0 mg/kg/injection, schedule: Q01DX009 (ip), vehicle: saline with Tween-80 105 % of control

CC(CO)CCC(O)C(C)C1CCC2C3CCC4CC(O)CCC4(C)C3CCC12C (stereo not given)
inactive: dose: 6.25 mg/kg/injection, schedule: Q01DX001 (ip), vehicle: saline with Tween-80 91 % of control | dose: 12.5 mg/kg/injection, schedule: Q01DX001 (ip), vehicle: saline with Tween-80 91 % of control | dose: 25.0 mg/kg/injection, schedule: Q01DX001 (ip), vehicle: saline with Tween-80 90 % of control | dose: 100.0 mg/kg/injection, schedule: Q01DX001 (ip), vehicle: saline with Tween-80 92 % of control | dose: 400.0 mg/kg/injection, schedule: Q01DX001 (ip), vehicle: saline with Tween-80 92 % of control

CS(=O)(=O)OCCCOS(C)(=O)=O
inactive: dose: 9.37 mg/kg/injection, schedule: Q01DX009 (ip), vehicle: Klucel (hydroxypropylcellulose) (HPC) 101 % of control | dose: 18.75 mg/kg/injection, schedule: Q01DX009 (ip), vehicle: Klucel (hydroxypropylcellulose) (HPC) 102 % of control | dose: 37.5 mg/kg/injection, schedule: Q01DX009 (ip), vehicle: Klucel (hydroxypropylcellulose) (HPC) 106 % of control | [1] 116 % of control | [2] 90 % of control
